# From ChEMBL document CHEMBL5584323, “Peptide-Mediated Small Molecule Lysosome-Targeting Chimeras for Targeted Degradation of Membrane and Intracellular Proteins” (J Med Chem, 2024)
# The source made the active and inactive calls. No cut-off for these calls is given here. Starred links: 1 amine or outer side, 2 acyl side, 3 side chain; linkers in the order of their positions; H or OH if unused. Non-standard residues stand in square brackets, D forms with d. Residues, ends and D or L forms follow the SMILES beside them. *: point of attachment. X5 = Nc1ncnc2c1c(-c1ccc(Oc3ccccc3)cc1)nn2[C@@H]1CCCN(C(=O)/C=C/CN2CCN(CCOCCOCCC(=O)*)CC2)C1; X4 = COc1nc(OCc2cccc(-c3ccccc3)c2C)ccc1CNCCNC(=O)CCCc1cn(CC(=O)*)nn1; X1 = Cc1ccc(-n2nc3c(=O)n(CCCC(=O)*)nc(C)c3c2C)cc1; X2 = O=S(=O)(c1ccc(NC(=S)NCc2cccnc2)cc1)*; X3 = O=C(CCCCCCCN1CCN([*:1])CC1)[*:2]; Aoc = NCCCCCCCC(=O)O
# What was measured:
# [1] = biological target: T1, Programmed cell death 1 ligand 1 (Homo sapiens, UniProt Q9NZQ7); experiment: Peptide-mediated small molecule lysosome-targeting chimeric activity based PD-L1 degradation in human A549 cells at 0.1 to 5 uM incubated for 48 hrs by Western blot analysis relative to control; format: cell-based; conditions: dose 0.1-5 µM
# [2] = biological target: T1, Programmed cell death 1 ligand 1; experiment: Peptide-mediated small molecule lysosome-targeting chimeric activity based PD-L1 degradation in Baf-A1-treated human A549 cells upto 5 uM incubated for 48 hrs by Western blot analysis; format: cell-based
# [3] = biological target: T1, Programmed cell death 1 ligand 1; experiment: Peptide-mediated small molecule lysosome-targeting chimeric activity based PD-L1 degradation in human A549 cells incubated for 48 hrs by Western blot analysis; format: cell-based
# [4] = biological target: T2, Retinal rod rhodopsin-sensitive cGMP 3',5'-cyclic phosphodiesterase subunit delta (Homo sapiens, UniProt O43924); experiment: Peptide-mediated small molecule lysosome-targeting chimeric activity based PDE-delta degradation in human MIA PaCa-2 cells assessed as reduction in Erk phosphorylation at Thr202/Tyr204 at 0.1 to 5 uM incubated for 48 hrs by Western blot analysis; format: cell-based; conditions: dose 0.1-5 µM
# MIA PaCa-2 [5] = experiment: Induction of apoptosis in human MIA PaCa-2 cells assessed as late apoptotic cells at 5 uM incubated for 48 hrs by Annexin V-FITC/PI staining based flow cytometry (reference value: 2.90 %); format: functional
# MIA PaCa-2 [6] = experiment: Induction of apoptosis in human MIA PaCa-2 cells assessed as early apoptotic cells at 10 uM incubated for 48 hrs by Annexin V-FITC/PI staining based flow cytometry (reference value: 4.45 %); format: functional
# MIA PaCa-2 [7] = experiment: Induction of apoptosis in human MIA PaCa-2 cells assessed as necrotic cells at 5 uM incubated for 48 hrs by Annexin V-FITC/PI staining based flow cytometry (reference value: 0.55 %); format: functional
# [8] = biological target: T2, Retinal rod rhodopsin-sensitive cGMP 3',5'-cyclic phosphodiesterase subunit delta; experiment: Peptide-mediated small molecule lysosome-targeting chimeric activity based PDE-delta degradation in Baf-A1-treated human MIA PaCa-2 cells at 0.5 to 1 uM incubated for 48 hrs by Western blot analysis; format: cell-based; conditions: dose 0.5-1 µM
# MIA PaCa-2 [9] = experiment: Induction of apoptosis in human MIA PaCa-2 cells assessed as early apoptotic cells at 5 uM incubated for 48 hrs by Annexin V-FITC/PI staining based flow cytometry (reference value: 4.45 %); format: functional
# [10] = biological target: T2, Retinal rod rhodopsin-sensitive cGMP 3',5'-cyclic phosphodiesterase subunit delta; experiment: Peptide-mediated small molecule lysosome-targeting chimeric activity based PDE-delta degradation in human MIA PaCa-2 cells assessed as reduction in Akt phosphorylation at S473 at 2 uM incubated for 48 hrs by Western blot analysis; format: cell-based
# MIA PaCa-2 [11] = experiment: Induction of apoptosis in human MIA PaCa-2 cells assessed as viable cells at 10 uM incubated for 48 hrs by Annexin V-FITC/PI staining based flow cytometry (reference value: 92.1 %); format: functional; conditions: read-out: Activity
# MIA PaCa-2 [12] = experiment: Induction of apoptosis in human MIA PaCa-2 cells assessed as viable cells at 5 uM incubated for 48 hrs by Annexin V-FITC/PI staining based flow cytometry (reference value: 92.1 %); format: functional; conditions: read-out: Activity
# MIA PaCa-2 [13] = experiment: Effect on total Akt in human MIA PaCa-2 cells at 0.1 to 5 uM incubated for 48 hrs by Western blot analysis; format: functional, cell-based; conditions: dose 0.1-5 µM
# [14] = Metabolic stability in rat liver microsomes assessed as half life; format: ADME, Microsome
# [15] = biological target: T2, Retinal rod rhodopsin-sensitive cGMP 3',5'-cyclic phosphodiesterase subunit delta; experiment: Peptide-mediated small molecule lysosome-targeting chimeric activity based PDE-delta degradation in human MIA PaCa-2 cells assessed as increase in lysosome-related organelles at 1 uM incubated for 48 hrs by TEM analysis; format: cell-based
# MIA PaCa-2 [16] = experiment: Antiproliferative activity against human MIA PaCa-2 cells incubated for 72 hrs by CKK8 assay; format: functional, cell-based; conditions: MIA PaCa-2, 72 h
# MIA PaCa-2 [17] = experiment: Induction of apoptosis in human MIA PaCa-2 cells assessed as necrotic cells at 20 uM incubated for 48 hrs by Annexin V-FITC/PI staining based flow cytometry (reference value: 0.55 %); format: functional
# MIA PaCa-2 [18] = experiment: Induction of apoptosis in human MIA PaCa-2 cells assessed as late apoptotic cells at 20 uM incubated for 48 hrs by Annexin V-FITC/PI staining based flow cytometry (reference value: 2.90 %); format: functional
# MIA PaCa-2 [19] = experiment: Induction of apoptosis in human MIA PaCa-2 cells assessed as viable cells at 20 uM incubated for 48 hrs by Annexin V-FITC/PI staining based flow cytometry (reference value: 92.1 %); format: functional; conditions: read-out: Activity
# MIA PaCa-2 [20] = experiment: Induction of apoptosis in human MIA PaCa-2 cells assessed as necrotic cells at 10 uM incubated for 48 hrs by Annexin V-FITC/PI staining based flow cytometry (reference value: 0.55 %); format: functional
# [21] = biological target: T2, Retinal rod rhodopsin-sensitive cGMP 3',5'-cyclic phosphodiesterase subunit delta; experiment: Peptide-mediated small molecule lysosome-targeting chimeric activity based PDE-delta degradation in human MIA PaCa-2 cells at 0.1 uM incubated for 48 hrs by Western blot analysis; format: cell-based
# MIA PaCa-2 [22] = experiment: Induction of apoptosis in human MIA PaCa-2 cells assessed as late apoptotic cells at 10 uM incubated for 48 hrs by Annexin V-FITC/PI staining based flow cytometry (reference value: 2.90 %); format: functional
# [23] = Stability of compound in PBS buffer incubated for 48 hrs by HPLC analysis; format: physicochemical
# [24] = biological target: T2, Retinal rod rhodopsin-sensitive cGMP 3',5'-cyclic phosphodiesterase subunit delta; experiment: Peptide-mediated small molecule lysosome-targeting chimeric activity based PDE-delta degradation in human MIA PaCa-2 cells incubated for 48 hrs by Western blot analysis; format: cell-based
# [25] = biological target: T2, Retinal rod rhodopsin-sensitive cGMP 3',5'-cyclic phosphodiesterase subunit delta; experiment: Peptide-mediated small molecule lysosome-targeting chimeric activity based PDE-delta degradation in human MIA PaCa-2 cells at 5 uM incubated for 48 hrs by Western blot analysis relative to control; format: cell-based
# MIA PaCa-2 [26] = experiment: Induction of apoptosis in human MIA PaCa-2 cells assessed as early apoptotic cells at 20 uM incubated for 48 hrs by Annexin V-FITC/PI staining based flow cytometry (reference value: 4.45 %); format: functional
# MIA PaCa-2 [27] = experiment: Effect on total Erk in human MIA PaCa-2 cells at 0.1 to 5 uM incubated for 48 hrs by Western blot analysis; format: functional, cell-based; conditions: dose 0.1-5 µM
# [28] = biological target: T3, Nicotinamide phosphoribosyltransferase (Homo sapiens, UniProt P43490); experiment: Peptide-mediated small molecule lysosome-targeting chimeric activity based NAMPT degradation in human MOLT-4 cells incubated for 48 hrs by Western blot analysis; format: cell-based
# [29] = biological target: T3, Nicotinamide phosphoribosyltransferase; experiment: Peptide-mediated small molecule lysosome-targeting chimeric activity based NAMPT degradation in human A2780 cells at 1 to 40 uM incubated for 48 hrs by Western blot analysis relative to control; format: cell-based; conditions: dose 1-40 µM
# Target sequence in this assay (P43490 whole entry, looked up): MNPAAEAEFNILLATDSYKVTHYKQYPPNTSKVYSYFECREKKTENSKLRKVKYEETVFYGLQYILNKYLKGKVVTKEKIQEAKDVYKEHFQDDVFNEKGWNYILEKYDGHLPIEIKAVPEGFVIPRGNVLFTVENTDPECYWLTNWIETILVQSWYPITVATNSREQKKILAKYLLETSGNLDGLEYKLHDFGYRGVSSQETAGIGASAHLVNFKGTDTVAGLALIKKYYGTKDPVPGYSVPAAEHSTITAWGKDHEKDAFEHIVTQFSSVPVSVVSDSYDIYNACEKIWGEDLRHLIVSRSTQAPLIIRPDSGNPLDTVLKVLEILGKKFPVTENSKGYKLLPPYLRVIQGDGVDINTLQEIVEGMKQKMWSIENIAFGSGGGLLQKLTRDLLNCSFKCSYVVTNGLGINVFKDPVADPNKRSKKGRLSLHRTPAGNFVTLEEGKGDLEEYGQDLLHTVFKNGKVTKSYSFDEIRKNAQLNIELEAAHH
# [30] = biological target: T3, Nicotinamide phosphoribosyltransferase; experiment: Peptide-mediated small molecule lysosome-targeting chimeric activity based NAMPT degradation in human A2780 cells incubated for 48 hrs by Western blot analysis; format: cell-based
# [31] = biological target: T3, Nicotinamide phosphoribosyltransferase; experiment: Peptide-mediated small molecule lysosome-targeting chimeric activity based NAMPT degradation in human MOLT-4 cells at 1 to 40 uM incubated for 48 hrs by Western blot analysis relative to control; format: cell-based; conditions: dose 1-40 µM
# Target sequence in this assay (P43490 whole entry, looked up): as above
# [32] = biological target: Tyrosine-protein kinase BTK (Homo sapiens) (UniProt Q06187); experiment: Peptide-mediated small molecule lysosome-targeting chimeric activity based BTK degradation in human K562 cells at 10 uM incubated for 48 hrs by Western blot analysis relative to control; format: cell-based
# Chain of Tyrosine-protein kinase BTK (Homo sapiens) (Q06187 whole entry): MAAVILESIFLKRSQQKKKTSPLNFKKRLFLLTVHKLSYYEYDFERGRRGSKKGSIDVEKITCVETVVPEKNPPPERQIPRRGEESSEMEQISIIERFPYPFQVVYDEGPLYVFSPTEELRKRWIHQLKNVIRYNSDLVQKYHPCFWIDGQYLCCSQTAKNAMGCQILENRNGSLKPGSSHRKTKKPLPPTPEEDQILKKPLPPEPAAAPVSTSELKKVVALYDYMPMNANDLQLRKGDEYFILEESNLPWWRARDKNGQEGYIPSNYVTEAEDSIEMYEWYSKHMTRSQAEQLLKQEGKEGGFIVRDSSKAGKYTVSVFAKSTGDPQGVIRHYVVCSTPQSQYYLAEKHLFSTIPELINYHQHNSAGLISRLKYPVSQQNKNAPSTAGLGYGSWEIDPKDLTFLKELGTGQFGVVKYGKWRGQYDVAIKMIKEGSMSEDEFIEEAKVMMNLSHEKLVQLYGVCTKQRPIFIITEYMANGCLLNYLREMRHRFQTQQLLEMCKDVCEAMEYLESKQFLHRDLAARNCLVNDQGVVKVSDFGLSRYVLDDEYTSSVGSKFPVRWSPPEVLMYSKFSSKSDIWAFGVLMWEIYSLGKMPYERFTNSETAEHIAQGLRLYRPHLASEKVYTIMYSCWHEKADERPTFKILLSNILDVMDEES
# T2 sequence (O43924 whole entry): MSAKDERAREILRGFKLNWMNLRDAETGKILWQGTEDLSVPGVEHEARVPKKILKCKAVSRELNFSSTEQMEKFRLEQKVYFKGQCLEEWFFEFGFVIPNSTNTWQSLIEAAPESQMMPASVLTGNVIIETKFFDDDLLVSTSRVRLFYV
# T1 sequence (Q9NZQ7 whole entry): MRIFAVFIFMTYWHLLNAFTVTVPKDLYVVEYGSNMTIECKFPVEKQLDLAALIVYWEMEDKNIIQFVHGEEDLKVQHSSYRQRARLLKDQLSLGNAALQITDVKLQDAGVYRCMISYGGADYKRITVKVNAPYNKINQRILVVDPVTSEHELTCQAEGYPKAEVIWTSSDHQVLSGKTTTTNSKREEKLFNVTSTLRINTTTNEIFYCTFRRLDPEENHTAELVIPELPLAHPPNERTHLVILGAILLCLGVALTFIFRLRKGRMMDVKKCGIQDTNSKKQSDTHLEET
smiles,measurement,setting,value
COc1nc(OCc2cccc(-c3ccccc3)c2C)ccc1CNCCNC(=O)CCCc1cn(CC(=O)NCC(=O)NCC(=O)N[C@@H](CCCNC(=N)N)C(=O)N[C@@H](CCCNC(=N)N)C(=O)N[C@@H](CCCNC(=N)N)C(=O)N[C@@H](CCCNC(=N)N)C(=O)N[C@@H](CCCNC(=N)N)C(=O)N[C@@H](CCCNC(=N)N)C(=O)N[C@@H](CCCNC(=N)N)C(=O)N[C@@H](CCCNC(=N)N)C(=O)N[C@@H](CCCNC(=N)N)C(=O)N[C@@H](CC(N)=O)C(=O)N2CCC[C@H]2C(=O)NCC(=O)N[C@@H](Cc2ccc(O)cc2)C(N)=O)nn1 (X4-GGRRRRRRRRRNPGY-NH2),Emax,[1],92%
same,Activity,[2],inactive
same,DC50,[3],200 nM
Cc1ccc(-n2nc3c(=O)n(CCCC(=O)NCCCCCCCC(=O)NCC(=O)NCC(=O)NCC(=O)N[C@@H](CCCNC(=N)N)C(=O)N[C@@H](CCCNC(=N)N)C(=O)N[C@@H](CCCNC(=N)N)C(=O)N[C@@H](CCCNC(=N)N)C(=O)N[C@@H](CCCNC(=N)N)C(=O)N[C@@H](CCCNC(=N)N)C(=O)N[C@@H](CCCNC(=N)N)C(=O)N[C@@H](CCCNC(=N)N)C(=O)N[C@@H](CCCNC(=N)N)C(=O)N[C@@H](CC(N)=O)C(=O)N4CCC[C@H]4C(=O)NCC(=O)N[C@@H](Cc4ccc(O)cc4)C(N)=O)nc(C)c3c2C)cc1 ({X1-Aoc}-GGGRRRRRRRRRNPGY-NH2),Activity,[4],Active
same,Activity,MIA PaCa-2 [5],3.48%
same,Activity,MIA PaCa-2 [6],10.7%
same,Activity,MIA PaCa-2 [7],0.95%
same,Activity,[8],inactive
same,Activity,MIA PaCa-2 [9],6.85%
same,Activity,[10],Active
same,viability at 10 µM,MIA PaCa-2 [11],73.3%
same,viability at 5 µM,MIA PaCa-2 [12],88.7%
same,Activity,MIA PaCa-2 [13],inactive
same,half-life,[14],33.5 min
same,Activity,[15],Active
same,IC50,MIA PaCa-2 [16],3600 nM
same,Activity,MIA PaCa-2 [17],3.9%
same,Activity,MIA PaCa-2 [18],19.7%
same,viability at 20 µM,MIA PaCa-2 [19],59.7%
same,Activity,MIA PaCa-2 [20],2.05%
same,Activity,[21],Active
same,Activity,MIA PaCa-2 [22],13.3%
same,Stability,[23],Stable
same,DC50,[24],230 nM
same,Activity,[24]; dose 0.1-5 µM,Dose-Dependent Effect
same,Emax,[25],89%
same,Activity,MIA PaCa-2 [26],16.8%
same,Activity,MIA PaCa-2 [27],inactive
N=C(N)NCCC[C@H](NC(=O)CNC(=O)CNC(=O)CNC(=O)CCCCCCCN1CCN(S(=O)(=O)c2ccc(NC(=S)NCc3cccnc3)cc2)CC1)C(=O)N[C@@H](CCCNC(=N)N)C(=O)N[C@@H](CCCNC(=N)N)C(=O)N[C@@H](CCCNC(=N)N)C(=O)N[C@@H](CCCNC(=N)N)C(=O)N[C@@H](CCCNC(=N)N)C(=O)N[C@@H](CCCNC(=N)N)C(=O)N[C@@H](CCCNC(=N)N)C(=O)N[C@@H](CCCNC(=N)N)C(=O)N[C@@H](CC(N)=O)C(=O)N1CCC[C@H]1C(=O)NCC(=O)N[C@@H](Cc1ccc(O)cc1)C(N)=O (X2-[X3]GGGRRRRRRRRRNPGY-NH2),DC50,[28],7000 nM
same,Activity,[28]; dose 1-40 µM,Dose-Dependent Effect
same,Emax,[29],93%
same,DC50,[30],890 nM
same,Activity,[30]; dose 1-40 µM,Dose-Dependent Effect
same,Emax,[31],90%
N=C(N)NCCC[C@H](NC(=O)CNC(=O)CNC(=O)CNC(=O)CCOCCOCCN1CCN(C/C=C/C(=O)N2CCC[C@@H](n3nc(-c4ccc(Oc5ccccc5)cc4)c4c(N)ncnc43)C2)CC1)C(=O)N[C@@H](CCCNC(=N)N)C(=O)N[C@@H](CCCNC(=N)N)C(=O)N[C@@H](CCCNC(=N)N)C(=O)N[C@@H](CCCNC(=N)N)C(=O)N[C@@H](CCCNC(=N)N)C(=O)N[C@@H](CCCNC(=N)N)C(=O)N[C@@H](CCCNC(=N)N)C(=O)N[C@@H](CCCNC(=N)N)C(=O)N[C@@H](CC(N)=O)C(=O)N1CCC[C@H]1C(=O)NCC(=O)N[C@@H](Cc1ccc(O)cc1)C(N)=O (X5-GGGRRRRRRRRRNPGY-NH2),Emax,[32],63%
Cc1ccc(-n2nc3c(=O)n(CCCC(=O)NCCCCCNc4cccc5c4C(=O)N(C4CCC(=O)NC4=O)C5=O)nc(C)c3c2C)cc1 (stereo unspecified),IC50,MIA PaCa-2 [16],9300 nM
